Test results taken from ChEMBL document CHEMBL3045993, “Expedient synthesis of some novel pregnane derivatives and their evaluation as anti-oxidant and anti-dyslipidemic agents” (2011).

Columns and labels:
Assay type in all cases: functional
Rattus norvegicus [1] = assay: Antidyslipidemic activity in Rattus norvegicus Charles Foster (rat) assessed as activation of post heparin lipolytic activity at 400 mg/kg, po after 18 hr relative to control
Liver microsome = assay: Antioxidant activity in Rattus norvegicus (rat) liver microsomes assessed as inhibition of lipid peroxidation at 100 ug/ml after 90 min by thiobarbuteric acid method
Rattus norvegicus [2] = assay: Antidyslipidemic activity in high fat diet fed Rattus norvegicus Charles Foster (rat) assessed as activation of liver phopholipase at 100 mg/kg, po administered QD for 30 days relative to control
Rattus norvegicus [3] = assay: Antidyslipidemic activity in high fat diet fed Rattus norvegicus Charles Foster (rat) assessed as inhibition of cholesterol-induced phospholipid level in plasma at 100 mg/kg, po administered QD for 30 days relative to control; conditions: 720 h
Rattus norvegicus [4] = assay: Antidyslipidemic activity in high fat diet fed Rattus norvegicus Charles Foster (rat) assessed as activation of cholesterol acyltransferase in plasma at 100 mg/kg, po administered QD for 30 days relative to control
Rattus norvegicus [5] = assay: Antidyslipidemic activity in Rattus norvegicus Charles Foster (rat) assessed as activation of post heparin lipolytic activity at 100 mg/kg, po after 18 hr relative to control
Rattus norvegicus [6] = assay: Antidyslipidemic activity in Rattus norvegicus Charles Foster (rat) assessed as inhibition of triton WR1339-induced phospholipid in plasma at 100 mg/kg, po after 18 hr relative to control
Rattus norvegicus [7] = assay: Antidyslipidemic activity in Rattus norvegicus Charles Foster (rat) assessed as inhibition of triton WR1339-induced total cholesterol in plasma at 100 mg/kg, po after 18 hr relative to control; conditions: read-out: INH
Rattus norvegicus [8] = assay: Antidyslipidemic activity in Rattus norvegicus Charles Foster (rat) assessed as inhibition of triton WR1339-induced triglyceride in plasma at 100 mg/kg, po after 18 hr relative to control
[9] = Antioxidant activity assessed as inhibition of hydroxy radical generation at 100 ug/ml after 90 min by thiobarbuteric acid method
[10] = Antioxidant activity assessed as inhibition of xanthine oxidase-mediated superoxide anion release at 100 ug/ml after 30 min relative to control

| Compound | Activity (Rattus norvegicus [1]) | Activity (Rattus norvegicus [2]) | inhibition in vivo at 100 mg/kg (Rattus norvegicus [3]) | Activity (Rattus norvegicus [4]) | also measured |
| --- | --- | --- | --- | --- | --- |
| COCCO[C@@H]1C[C@H]2[C@@H]3CC=C4C[C@@H](O)CC[C@]4(C)[C@H]3CC[C@]2(C)[C@H]1[C@H](C)O [3BETA,20BETA-DIHYDROXY-16ALPHA-(2-METHOXY ETHOXY)-PREGN-5-EN] | 17% | – | – | – | inhibition (Liver microsome): -10% |
| CC(=O)[C@H]1[C@H](OCCOCCO)C[C@H]2[C@@H]3CC=C4C[C@@H](O)CC[C@]4(C)[C@H]3CC[C@@]21C [3BETA-HYDROXY-16ALPHA-[2(2-HYDROXY ETHOXY)-ETHOXY]PREGN-5-EN-20-ONE] | 17% | – | – | – | – |
| CC(=O)[C@H]1[C@H](c2cc(F)ccc2N)C[C@H]2[C@@H]3CC=C4C[C@@H](O)CC[C@]4(C)[C@H]3CC[C@@]21C [3BETA-HYDROXY-16ALPHA-(2-AMINO-5-FLUORO-PHENYL)-PREGN-5-EN-20-ONE] | 24% | 27% | -21% | 28% | – |
| CC(=O)OCCOCCO[C@@H]1C[C@H]2[C@@H]3CC=C4C[C@@H](OC(C)=O)CC[C@]4(C)[C@H]3CC[C@]2(C)[C@H]1C(C)=O [3BETA-ACETOXY-16ALPHA-[2(2-ACETOXY ETHOXY)-ETHOXY]-PREGN-5-EN-20-ONE] | 23% | 15% | -22% | 20% | – |
| CC(=O)[C@H]1[C@H](OCC(C)O)C[C@H]2[C@@H]3CC=C4C[C@@H](O)CC[C@]4(C)[C@H]3CC[C@@]21C (stereo partly drawn) [3BETA-HYDROXY-16ALPHA-(2-HYDROXY PROPOXY)PREGN-5-EN-20-ONE] | 21% | – | – | – | – |
| COCCO[C@@H]1C[C@H]2[C@@H]3CC=C4C[C@@H](O)CC[C@]4(C)[C@H]3CC[C@]2(C)[C@H]1C(C)=O [3BETA-HYDROXY-16ALPHAA-(2-METHOXYETHOXY)PREGN-5-EN-20-ONE] | 18% | – | – | – | – |
| C[C@H](O)[C@H]1[C@H](OCCOCCO)C[C@H]2[C@@H]3CC=C4C[C@@H](O)CC[C@]4(C)[C@H]3CC[C@]12C [3BETA,20BETA-DIHYDROXY-16ALPHA-[2(2-HYDROXYETHOXY)-ETHOXY]-PREGN-5-EN] | 17% | – | – | – | – |
| Cc1ccc(C)c(OCCCC(C)(C)C(=O)O)c1 [GEMFIBROZIL] | – | 33% | -31% | 31% | Activity (Rattus norvegicus [5]): 32%; inhibition in vivo at 100 mg/kg (Rattus norvegicus [6]): -34%; inhibition in vivo at 100 mg/kg (Rattus norvegicus [7]): 36%; inhibition in vivo at 100 mg/kg (Rattus norvegicus [8]): 36% |
| CC(=O)OC(C)CO[C@@H]1C[C@H]2[C@@H]3CC=C4C[C@@H](OC(C)=O)CC[C@]4(C)[C@H]3CC[C@]2(C)[C@H]1C(C)=O (stereo partly drawn) [3BETA-ACETOXY-16ALPHA-(2-ACETOXY PROPOXY)-PREGN-5-EN-20-ONE] | 13% | – | – | – | inhibition [9]: -9% |
| CC(=O)[C@H]1[C@H](Nc2ccc(Cl)cc2)C[C@H]2[C@@H]3CC=C4C[C@@H](O)CC[C@]4(C)[C@H]3CC[C@@]21C [3BETA-HYDROXY-16ALPHA-(4-CHLORO PHENYLAMINO)-PREGN-5-EN-20-ONE] | 31% | 18% | -25% | 23% | inhibition (Liver microsome): -8% |
| C/C(=N\OC(C)C)C1=CC[C@H]2[C@@H]3CC=C4C[C@@H](O)CC[C@]4(C)[C@H]3CC[C@]12C | 23% | – | – | – | inhibition [10]: -9% |
| COCCO[C@@H]1C[C@H]2[C@@H]3CC=C4C[C@@H](OC(C)=O)CC[C@]4(C)[C@H]3CC[C@]2(C)[C@H]1C(C)=O [3BETA-ACETOXY-16ALPHA-(2-METHOXY ETHOXY)-PREGN-5-EN-20-ONE] | 18% | – | – | – | – |
| CC(=O)[C@@]1(O)[C@H](OCCO)C[C@H]2[C@@H]3CC=C4C[C@@H](O)CC[C@]4(C)[C@H]3CC[C@@]21C [3BETA,17ALPHA-DIHYDROXY-16ALPHA-(2-HYDROXY ETHOXY)PREGN-5-EN-20-ONE] | 21% | – | – | – | – |
